Source: patent publication US6552080B1, “Fungicidal compounds having a fluorovinyl-or fluoropropenyl-oxyphenyloxime moiety and process for the preparation thereof” (Korea Research Institute of Chemical Technology, priority 1999, dated 2003)
Like-named read-outs stand apart in the source and are kept apart here.

Key:
[1] = test system: Pyricularia oryzae Carvara KA301; format: in vivo; conditions: for RCV (Fungicidal Activities, C.V.): Rice Blast
Botrytis cinerae = test: Fungicidal activity against Cucumber Gray Mold Rot (CGM) disease; format: in vivo; conditions: for CGM (Fungicidal Activities, C.V.): Cucumber Gray Mold Rot, concentration 50 ppm; for Fungicidal Activities CGM (C.V.): 50 ppm
Description: Botrytis cinerae, which was isolated from cucumber infected thereby, was inoculated on a PDA agar medium and cultured under a 12L/12D cycle at 25° C. for 15 days to form spore. The spores were scraped, filtered through a gauze and then suspended in potato dextrose liquid medium at a concentration of 1×10^6 spore/ml. The spore suspension was sprayed on a cucumber plant having one leaf. The cucumber plant was held in a humidified room at 20° C. for 3 days. L.A. on a leaf was measured to calculate an C.V.

Phytophthora infestans = format: in vivo; conditions: for TLB (Fungicidal Activities, C.V.): Tomato Late Blight
Puccinia recondita = test: Fungicidal activity against Wheat Leaf Rust (WLR) disease; format: in vivo; conditions: for WLR (Fungicidal Activities, C.V.): Wheat Leaf Rust
Erysiphae graminis = test: Fungicidal activity against Barley Powdery Mildew (BPM) disease; format: in vivo; conditions: for BPM (Fungicidal Activities, C.V.): Barley Powdery Mildew
Rhizoctonia solani AG-1 = test: Fungicidal activity against Rice Sheath Blight (RSB) disease; conditions: for RSB (Fungicidal Activities, C.V.): Rice Sheath Blight

| SMILES | RCV (Fungicidal Activities, C.V.) ([1]; concentration 50 ppm) | CGM (Fungicidal Activities, C.V.) (Botrytis cinerae) | TLB (Fungicidal Activities, C.V.) (Phytophthora infestans; concentration 50 ppm) | WLR (Fungicidal Activities, C.V.) (Puccinia recondita; concentration 2 ppm) | WLR (Fungicidal Activities, C.V.) (Puccinia recondita; concentration 10 ppm) | WLR (Fungicidal Activities, C.V.) (Puccinia recondita; concentration 50 ppm) | BPM (Fungicidal Activities, C.V.) (Erysiphae graminis; concentration 2 ppm) | BPM (Fungicidal Activities, C.V.) (Erysiphae graminis; concentration 10 ppm) | BPM (Fungicidal Activities, C.V.) (Erysiphae graminis; concentration 50 ppm) | RSB (Fungicidal Activities, C.V.) (Rhizoctonia solani AG-1; concentration 50 ppm) | RCV (Fungicidal Activities, C.V.) ([1]; concentration 2 ppm) | further results |
| --- | --- | --- | --- | --- | --- | --- | --- | --- | --- | --- | --- | --- |
| COC=C(C(=O)OC)c1ccccc1CON=Cc1cccc(OC(F)=C(c2ccc(OC)cc2)C(F)(F)F)c1 [Compound 111] | 0% | 17% | 0% | 80% | 95% | 98% | 95% | 100% | 100% | 0% | – | – |
| COC=C(C(=O)OC)c1ccccc1CON=C(C)c1cccc(OC(F)=C(c2cccc(F)c2)C(F)(F)F)c1 [Compound 159] | 96% | 52% | 20% | 94% | 100% | 100% | 99% | 100% | 100% | 65% | 25% | RCV (Fungicidal Activities, C.V.) ([1]; concentration 10 ppm): 91% |
| CON=C(C(=O)OC)c1ccccc1CON=Cc1cccc(OC(F)=Cc2ccccc2)c1 [Compound 24] | 97% | 50% | 33% | 95% | 97% | 99% | 95% | 100% | 100% | 95% | 28% | RCV (Fungicidal Activities, C.V.) ([1]; concentration 10 ppm): 88%; RSB (Fungicidal Activities, C.V.) (Rhizoctonia solani AG-1; concentration 2 ppm): 44%; RSB (Fungicidal Activities, C.V.) (Rhizoctonia solani AG-1; concentration 10 ppm): 72% |
| CNC(=O)C(=NOC)c1ccccc1CON=C(C)c1cccc(OC(F)=C(c2ccc(F)cc2)C(F)(F)F)c1 [Compound 199] | – | – | – | – | – | – | – | – | – | – | – | Fungicidal Activities RCV (C.V.) ([1]; 2 ppm): 100%; Fungicidal Activities RCV (C.V.) ([1]; 50 ppm): 100%; Fungicidal Activities CGM (C.V.) (Botrytis cinerae): 80%; Fungicidal Activities TLB (C.V.) (Phytophthora infestans; 2 ppm): 12%; Fungicidal Activities TLB (C.V.) (Phytophthora infestans; 50 ppm): 60%; Fungicidal Activities WLR (C.V.) (Puccinia recondita; 2 ppm): 99%; Fungicidal Activities WLR (C.V.) (Puccinia recondita; 50 ppm): 100%; Fungicidal Activities BPM (C.V.) (Erysiphae graminis; 2 ppm): 100%; Fungicidal Activities BPM (C.V.) (Erysiphae graminis; 50 ppm): 100%; Fungicidal Activities RSB (C.V.) (Rhizoctonia solani AG-1; 2 ppm): 35%; Fungicidal Activities RSB (C.V.) (Rhizoctonia solani AG-1; 50 ppm): 100% |
| CON=C(C(=O)OC)c1ccccc1CON=Cc1cccc(OC(F)=C(c2ccc(F)cc2)C(F)(F)F)c1 [Compound 135] | 86% | 71% | 0% | 94% | – | 100% | 93% | – | 100% | 61% | 43% | RSB (Fungicidal Activities, C.V.) (Rhizoctonia solani AG-1; concentration 2 ppm): 20% |
| CNC(=O)C(=COC)c1ccccc1CON=C(C)c1cccc(OC(F)=Cc2ccc(Cl)c(C)c2)c1 [Compound 61] | 91% | 33% | 0% | – | – | 43% | – | – | 86% | 23% | – | – |
| COC=C(C(=O)OC)c1ccccc1CON=C(c1cccc(OC(F)=Cc2ccc3c(c2)OCO3)c1)C(F)(F)F [Compound 94] | 100% | 54% | 68% | 93% | 96% | 100% | 100% | 100% | 100% | 60% | 99% | RCV (Fungicidal Activities, C.V.) ([1]; concentration 10 ppm): 100% |
| CNC(=O)C(=COC)c1ccccc1CON=C(C)c1cccc(OC(F)=Cc2cc(C)cc(C)c2)c1 [Compound 58] | 100% | 8% | 0% | – | – | 98% | – | – | 98% | 23% | – | – |
| COC=C(C(=O)OC)c1ccccc1CON=C(C)c1cccc(OC(F)=Cc2ccc(C)cc2)c1 [Compound 42] | 100% | 64% | 97% | 98% | 100% | 100% | 100% | 100% | 100% | 70% | 58% | RCV (Fungicidal Activities, C.V.) ([1]; concentration 10 ppm): 96% |
| COC=C(C(=O)OC)c1ccccc1CON=Cc1cccc(OC(F)=C(c2ccc(F)cc2)C(F)(F)F)c1 [Compound 113] | 0% | 0% | 21% | 86% | 98% | 100% | 86% | 96% | 100% | 20% | – | – |
| COC=C(C(=O)OC)c1ccccc1CON=C(C)c1cccc(OC(F)=Cc2cc(C)cc(C)c2)c1 [Compound 44] | 100% | 5% | 71% | 96% | 100% | 100% | 100% | 100% | 100% | 75% | 85% | RCV (Fungicidal Activities, C.V.) ([1]; concentration 10 ppm): 95% |
| CON=C(C(=O)OC)c1ccccc1CON=C(C)c1cccc(OC(F)=C(c2cccc(OC)c2)C(F)(F)F)c1 [Compound 180] | – | – | – | – | – | – | – | – | – | – | – | Fungicidal Activities RCV (C.V.) ([1]; 2 ppm): 86%; Fungicidal Activities RCV (C.V.) ([1]; 50 ppm): 100%; Fungicidal Activities CGM (C.V.) (Botrytis cinerae): 56%; Fungicidal Activities TLB (C.V.) (Phytophthora infestans; 50 ppm): 56%; Fungicidal Activities WLR (C.V.) (Puccinia recondita; 2 ppm): 97%; Fungicidal Activities WLR (C.V.) (Puccinia recondita; 50 ppm): 100%; Fungicidal Activities BPM (C.V.) (Erysiphae graminis; 2 ppm): 98%; Fungicidal Activities BPM (C.V.) (Erysiphae graminis; 50 ppm): 100%; Fungicidal Activities RSB (C.V.) (Rhizoctonia solani AG-1; 2 ppm): 25%; Fungicidal Activities RSB (C.V.) (Rhizoctonia solani AG-1; 50 ppm): 60% |
| COC=C(C(=O)OC)c1ccccc1CON=C(c1cccc(OC(F)=Cc2cccc(F)c2)c1)C(F)(F)F [Compound 90] | 76% | 9% | 27% | – | – | 86% | – | 97% | 99% | 35% | – | – |
| CON=C(C(=O)OC)c1ccccc1CON=Cc1cccc(OC(F)=Cc2ccc(Cl)cc2)c1 [Compound 28] | 99% | 9% | 38% | 97% | – | 100% | 86% | – | 95% | 50% | 66% | TLB (Fungicidal Activities, C.V.) (Phytophthora infestans; concentration 2 ppm): 50%; RSB (Fungicidal Activities, C.V.) (Rhizoctonia solani AG-1; concentration 2 ppm): 0% |
| COC=C(C(=O)OC)c1ccccc1CON=Cc1cccc(OC(F)=Cc2cc(C)cc(C)c2)c1 [Compound 5] | 41% | 17% | 28% | 96% | 100% | 100% | 98% | 100% | 100% | 55% | – | – |
| CCOc1ccc(C=C(F)Oc2cccc(C=NOCc3ccccc3C(=NOC)C(=O)NC)c2)cc1 [Compound 36] | 100% | 0% | 0% | 0% | – | 93% | 0% | – | 100% | 0% | 88% | – |
| CNC(=O)C(=COC)c1ccccc1CON=C(C)c1cccc(OC(F)=Cc2ccc3c(c2)OCO3)c1 [Compound 63] | 96% | 33% | 0% | – | – | 90% | – | – | 97% | 11% | – | – |
| CON=C(C(=O)OC)c1ccccc1CON=Cc1cccc(OC(F)=C(c2ccccc2)C(F)(F)F)c1 [Compound 131] | 80% | 42% | 4% | 98% | – | 100% | 76% | – | 100% | 55% | 43% | – |
